Measurements taken from ChEMBL document CHEMBL1201862, “PubChem BioAssay data set” (2004).
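Values below derive from 48-hour exposures of cells grown in 96-well plates, with endpoints linearly interpolated between the two concentrations bracketing the appropriate inhibition level. At the GI50, growth is halved.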 Activity calls are given as the source filed them. Rule as the data show it: active = GI50 up to about 1.1 µM and inactive = higher.

Columns and labels:
Test in all cases: DTP human tumour cell line panel, 48 h
[1] = system: MCF7
[2] = system: A498
[3] = system: MDA-MB-231
[4] = system: NCI-H23
[5] = system: RXF 393
[6] = system: LOX IMVI
[7] = system: Malme-3M
[8] = system: HL-60
[9] = system: K562
[10] = system: SK-OV-3
[11] = system: SF-295
[12] = system: 786-0
[13] = system: BT-549
[14] = system: SNB-19
[15] = system: U-251
[16] = system: NCI-H460
[17] = system: SW-620
[18] = system: HT-29
[19] = system: A549
[20] = system: CAKI-1
[21] = system: KM12
[22] = system: Hs-578T
[23] = system: NCI-H226
[24] = system: HOP-92
[25] = system: UACC-257
[26] = system: SF-268
[27] = system: OVCAR-5
[28] = system: OVCAR-3
[29] = system: TK-10
[30] = system: SR
[31] = system: RPMI-8226
[32] = system: UACC-62
[33] = system: M14
[34] = system: MOLT-4
[35] = system: SK-MEL-5
[36] = system: HOP-62
[37] = system: SK-MEL-2
[38] = system: SF-539
[39] = system: NCI-H522
[40] = system: SN12C
[41] = system: ACHN
[42] = system: IGROV-1
[43] = system: SK-MEL-28
[44] = system: SNB-75
[45] = system: CCRF-CEM
[46] = system: DU-145
[47] = system: OVCAR-4
[48] = system: OVCAR-8
[49] = system: PC-3
[50] = system: T47D
[51] = system: HCT-116
[52] = system: HCT-15
[53] = system: UO-31
[54] = system: HCC 2998
[55] = system: COLO 205
[56] = system: MDA-MB-435
[57] = system: EKVX
[58] = system: NCI/ADR-RES

Which GI50 [1] does the source give for `COC(=O)C(Cc1ccccc1)NC(=O)CNC(=O)CSc1nnc(COc2ccc(Cl)cc2)n1-c1ccccc1` (stereo not drawn) here?
Its GI50 is 18.2 µM (inactive).

What about the GI50 [2] of the same compound?
Its GI50 is 15.5 µM (inactive).

What about the GI50 [3] of the same compound?
The GI50 was 17 µM (inactive).

What about the GI50 [4] of the same compound?
The GI50 was 18.7 µM (inactive).

What about the GI50 [5] of the same compound?
Its GI50 is 16.7 µM (inactive).

And the GI50 [6]?
Its GI50 is 3.69 µM (inactive).

And the GI50 [7]?
The GI50 was 18.7 µM (inactive).

And the GI50 [8]?
Its GI50 is 4.8 µM (inactive).

What about the GI50 [9] of the same compound?
The GI50 was 25.3 µM (inactive).

What about the GI50 [10] of the same compound?
Its GI50 is 14.5 µM (inactive).

What about the GI50 [11] of the same compound?
The GI50 was 17.8 µM (inactive).

And the GI50 [12]?
The GI50 was 16.7 µM (inactive).

And the GI50 [13]?
Its GI50 is 18.7 µM (inactive).

What about the GI50 [14] of the same compound?
The GI50 was 17.2 µM (inactive).

And the GI50 [15]?
Its GI50 is 18.2 µM (inactive).

What about the GI50 [16] of the same compound?
Its GI50 is 16.3 µM (inactive).

What about the GI50 [17] of the same compound?
Its GI50 is 20.4 µM (inactive).

And the GI50 [18]?
Its GI50 is 18.8 µM (inactive).

What about the GI50 [19] of the same compound?
Its GI50 is 17.8 µM (inactive).

And the GI50 [20]?
The GI50 was 12.7 µM (inactive).

What about the GI50 [21] of the same compound?
The GI50 was 18.7 µM (inactive).

What about the GI50 [22] of the same compound?
The GI50 was 26.5 µM (inactive).

And the GI50 [23]?
Its GI50 is 16.5 µM (inactive).

And the GI50 [24]?
The GI50 was 17.4 µM (inactive).

And the GI50 [25]?
The GI50 was 15.2 µM (inactive).

And the GI50 [26]?
The GI50 was 17.1 µM (inactive).

And the GI50 [27]?
Its GI50 is 18.7 µM (inactive).

What about the GI50 [28] of the same compound?
The GI50 was 16.7 µM (inactive).

What about the GI50 [29] of the same compound?
Its GI50 is 14.5 µM (inactive).

And the GI50 [30]?
Its GI50 is 2.64 µM (inactive).

What about the GI50 [31] of the same compound?
Its GI50 is 4.74 µM (inactive).

And the GI50 [32]?
The GI50 was 14.5 µM (inactive).

And the GI50 [33]?
Its GI50 is 17.7 µM (inactive).

And the GI50 [34]?
Its GI50 is 3.55 µM (inactive).

What about the GI50 [35] of the same compound?
The GI50 was 16.1 µM (inactive).

And the GI50 [36]?
Its GI50 is 17.7 µM (inactive).

What about the GI50 [37] of the same compound?
Its GI50 is 17 µM (inactive).

And the GI50 [38]?
Its GI50 is 17.6 µM (inactive).

And the GI50 [39]?
Its GI50 is 2.27 µM (inactive).

And the GI50 [40]?
Its GI50 is 17.9 µM (inactive).

And the GI50 [41]?
The GI50 was 14.2 µM (inactive).

And the GI50 [42]?
Its GI50 is 15.4 µM (inactive).

What about the GI50 [43] of the same compound?
Its GI50 is 18 µM (inactive).

And the GI50 [44]?
The GI50 was 17.9 µM (inactive).

And the GI50 [45]?
The GI50 was 2.86 µM (inactive).

And the GI50 [46]?
The GI50 was 17.5 µM (inactive).

And the GI50 [47]?
Its GI50 is 6.73 µM (inactive).

What about the GI50 [48] of the same compound?
The GI50 was 13.7 µM (inactive).

And the GI50 [49]?
Its GI50 is 17.1 µM (inactive).

What about the GI50 [50] of the same compound?
The GI50 was 12.5 µM (inactive).

And the GI50 [51]?
The GI50 was 17.8 µM (inactive).

And the GI50 [52]?
The GI50 was 18.1 µM.

And the GI50 [53]?
The GI50 was 1.69 µM (inactive).

What about the GI50 [54] of the same compound?
The GI50 was 12 µM (inactive).

And the GI50 [55]?
The GI50 was 16.2 µM (inactive).

And the GI50 [56]?
Its GI50 is 18.2 µM (inactive).

What about the GI50 [57] of the same compound?
Its GI50 is 20.4 µM (inactive).

And the GI50 [58]?
The GI50 was 20 µM (inactive).

How did the GI50 [1] turn out when `Fc1ccc(C2NC(=S)NC3=C2CCOc2c3ccc3ccccc23)cc1` (stereo not drawn) was run?
Its GI50 is 15.7 µM (inactive).

What about the GI50 [2] of the same compound?
Its GI50 is 18.9 µM (inactive).

What about the GI50 [4] of the same compound?
Its GI50 is 24.4 µM (inactive).

And the GI50 [5]?
Its GI50 is 14.8 µM (inactive).

What about the GI50 [7] of the same compound?
The GI50 was 17.4 µM (inactive).

What about the GI50 [8] of the same compound?
Its GI50 is 19 µM (inactive).

And the GI50 [9]?
The GI50 was 3.39 µM (inactive).

And the GI50 [10]?
Its GI50 is 82.4 µM (inactive).

What about the GI50 [11] of the same compound?
The GI50 was 34.4 µM (inactive).

What about the GI50 [12] of the same compound?
The GI50 was 33 µM (inactive).

What about the GI50 [13] of the same compound?
Its GI50 is 58.1 µM (inactive).

And the GI50 [14]?
Its GI50 is 55.1 µM (inactive).

What about the GI50 [16] of the same compound?
Its GI50 is 30.7 µM (inactive).

What about the GI50 [17] of the same compound?
Its GI50 is 39.1 µM (inactive).

What about the GI50 [19] of the same compound?
The GI50 was 31.3 µM (inactive).

And the GI50 [20]?
Its GI50 is 16.6 µM (inactive).

And the GI50 [21]?
Its GI50 is 21.8 µM (inactive).

What about the GI50 [22] of the same compound?
Its GI50 is 42.1 µM (inactive).

What about the GI50 [24] of the same compound?
The GI50 was > 100 µM (inactive).

And the GI50 [25]?
Its GI50 is 53.8 µM (inactive).

And the GI50 [26]?
The GI50 was 45.1 µM (inactive).

What about the GI50 [27] of the same compound?
The GI50 was 94.6 µM (inactive).

And the GI50 [28]?
Its GI50 is 44.1 µM (inactive).

And the GI50 [29]?
The GI50 was 44.9 µM (inactive).

And the GI50 [31]?
Its GI50 is 19.8 µM (inactive).

And the GI50 [33]?
Its GI50 is 27.7 µM (inactive).

And the GI50 [34]?
Its GI50 is 19.9 µM (inactive).

And the GI50 [35]?
Its GI50 is 11.3 µM (inactive).

And the GI50 [36]?
Its GI50 is 64.9 µM (inactive).

What about the GI50 [37] of the same compound?
The GI50 was 79.6 µM (inactive).

What about the GI50 [38] of the same compound?
Its GI50 is > 100 µM (inactive).

What about the GI50 [39] of the same compound?
The GI50 was 35 µM (inactive).

What about the GI50 [40] of the same compound?
Its GI50 is 94.8 µM (inactive).

What about the GI50 [41] of the same compound?
Its GI50 is 58.7 µM (inactive).

And the GI50 [42]?
Its GI50 is 47.1 µM (inactive).

And the GI50 [44]?
The GI50 was 13.6 µM (inactive).

What about the GI50 [45] of the same compound?
Its GI50 is 54 µM (inactive).

And the GI50 [46]?
The GI50 was > 100 µM (inactive).

What about the GI50 [47] of the same compound?
The GI50 was 24.7 µM (inactive).

And the GI50 [48]?
Its GI50 is > 100 µM (inactive).

What about the GI50 [49] of the same compound?
Its GI50 is 50.8 µM (inactive).

What about the GI50 [50] of the same compound?
The GI50 was 2.7 µM (inactive).

What about the GI50 [51] of the same compound?
Its GI50 is 4.85 µM (inactive).

And the GI50 [52]?
Its GI50 is 18.7 µM.

What about the GI50 [53] of the same compound?
Its GI50 is 26.7 µM (inactive).

And the GI50 [54]?
Its GI50 is 22.6 µM (inactive).

What about the GI50 [55] of the same compound?
The GI50 was 6.67 µM (inactive).

What about the GI50 [56] of the same compound?
Its GI50 is 8.53 µM (inactive).

And the GI50 [57]?
Its GI50 is 51.9 µM (inactive).

What about the GI50 [58] of the same compound?
Its GI50 is 18.9 µM (inactive).
